We go through 2 molecules from US20240027428A1, “METHOD FOR BUILDING CO-CULTURE MODEL FOR CACO-2/RAW-264.7 CELLS INDUCED BY LIPOPOLYSACCHARIDES AND APPLICATION OF CO-CULTURE MODEL” (ZHEJIANG UNIVERSITY OF TECHNOLOGY, priority 2022, published 2024).

For data set [1], the system named is Caco-2 cells. The data set can be described thus: Effect of an endocytosis inhibitor on uptake/transport in a co-culture model. It is filed as in vitro ADME. Conditions: β-CD, chlorpromazine (CPZ), cytochalasin D (P>0.05). How it is done: (§1) Cell co-culture: Caco-2 cells were inoculated onto a 6-well Transwell plate at a density of 1×10^5 cells/well. A culture medium was changed once every 1-2 days in 21 consecutive days. RAW-264.7 cells were inoculated onto a side wall of a substrate at a density of 1×10^5 cells/well, and were cultured in 5% carbon dioxide at 37° C. for 48 h, to promote obvious adhesion of the cells to the side wall of the substrate. After 48 h, the culture medium was replaced with a serum-free DMEM. It was intended to evaluate the absorption of C3G liposomes in a co-culture model.
Effect of an endocytosis inhibitor on uptake in a co-culture model: 0.2 mg/mL of a C3G and C3G NL solution was prepared with an HBSS, 0.1 ml of a sample solution was added on an AP side, 0.6 mL of an HBSS was added on a BL side, an MEM, 10 mmol/L ([…]) of β-CD,10 μg/mL of chlorpromazine, 2 μmol/L (1 μg/ml) of cytochalasin D (0.1 ml) were added and sucked out after 30 min, cells were cultured in an environment at 37° C. for 1 h, three wells were provided, a culture medium was discarded after culture, and uptake was stopped using an HBSS. The content of a sample was determined with HPLC, and Papp was calculated.

The subject of data set [2] is inflammatory factors IL-6, IL-8, IL-1β, and TNF-α. The data set can be described thus: Content of inflammatory factors in LPS-induced Caco-2/RAW-264.7 co-culture model (ELISA). The format is cell-based. The protocol: as §1
Determination of the content of inflammatory factors in a co-culture model: levels of inflammatory factors IL-6, IL-8, IL-1β, and TNF-α in a supernatant of Caco-2 cells in an LPS-induced co-culture model were determined with an ELISA kit.
(An ELISA detects its analyte on a solid surface through an enzyme-linked reagent.)

For data set [3], the system named is Caco-2 cells. The data set can be described thus: Effect of temperature on uptake in a co-culture model. It is filed as in vitro ADME. Conditions: 4° C. to 37° C. (P<0.0001). How it is done:
as §1
Effect of temperature on uptake in a co-culture model: 0.2 mg/mL of a C3G and C3G NL solution was prepared with an HBSS, 0.1 ml of a sample solution was added on an AP side, 0.6 mL of an HBSS was added on an BL side, cells were cultured in environments at 37° C. and 4° C. for 2 h, three wells were provided at each temperature, a culture medium was discarded after culture, and uptake was stopped using an HBSS. The content of a sample on the BL side was determined with HPLC.

Data set [4] has as its system Caco-2 cells. The data set can be described thus: CCK-8 cytotoxicity test, viability of Caco-2 cells. It is filed as cell-based. The following applies: Caco-2, 24 h, 0.2 mg/mL and below (P>0.05). For orientation: Formazan colour is commonly taken as a measure of viable cells.
Procedure: Cytotoxicity tests: according to manufacturer's instructions, cell viability was determined with a CCK-8 (Nanjing Jiancheng Biological Engineering Research Institute, Nanjing, China). In short, Caco-2 cells were treated with [MUT] liposomes at concentrations of 0.1 mg/mL, 0.2 mg/mL, 0.3 mg/mL, and 0.4 mg/mL, incubated for 24 h, then washed with PBS once, and added with a CCK-8 solution. Incubation was performed at 37° C. for 4 h, and an optical density at 450 nm was determined. […] NL and [MUT] on the viability of Caco-2 cells were inspected with a CCK-8 method. The Caco-2 cells were inoculated onto a 96-well plate having each well of 100 μL at a density of 1×10^5 cells/mL, and 200 μL of PBS was added to a peripheral well of the 96-well plate, to provide a humidity environment. […] After incubation for 24 h, 20 μL of a CCK-8 solution was added to each well, incubation was performed in an incubator at 37° C. for 1 h, and then an optical density (OD) at a wavelength of 490 nm was detected with a microplate reader and was calculated according to the following formula: Cell viability (%)=ODtreatment well/ODcontrol well×100% where the ODtreatment well represented an optical density of cells after addition of drugs, and the ODcontrol well represented an optical density of cells in a blank control.
Data set [5] has as its system Caco-2 cells. The data set can be described thus: Effect of concentration on transport in a co-culture model. The format is in vitro ADME. The following applies: at 1 h; not saturated. How it is done:
as §1
Effect of concentration on uptake in a co-culture model: 0.02 mg/ml, 0.04 mg/ml, […], 0.08 mg/ml, and 0.1 mg/ml of C3G and C3G NL solutions were prepared, transport from an AP side to a BL side and transport from the BL side to the AP side were evaluated, 0.1 ml of a sample was added on the AP side, 0.6 ml of a sample was added on the BL side, three wells were provided, […], a culture medium was discarded after culture, and uptake was stopped using an HBSS. The content of the sample on the BL side was determined with HPLC.

Data set [6] relates to Caco-2 cells. The data set can be described thus: Effect of time on uptake in a co-culture model. The following applies: 0.2 mg/mL, 0-6 h. It is filed as in vitro ADME. The protocol:
as §1
Effect of time on uptake in a co-culture model: 0.2 mg/mL of a C3G and C3G NL solution was prepared with a DMEM, 0.1 ml of a sample solution was added on an AP side, 0.6 mL of a DMEM was added on an BL side, culture was performed in an incubator at 37° C. for 1 h, 2 h, 3 h, 4 h, 5 h, and 6 h, three wells were provided at each time point, a drug-containing buffer solution was discarded after incubation, precooled PBS was added to stop cellular uptake, and cell monolayers were quickly washed for three times. […] A cell suspension was dissolved with methanol and centrifuged at 15,000 rpm for 20 min, then a supernatant was taken, and the content of C3G was determined with HPLC.

The subject of data set [7] is Caco-2 cells. The data set can be described thus: Transport tests for Lucifer yellow across Caco-2 monolayer in Transwell. It is filed as in vitro ADME. The following applies: 20 μg/mL Lucifer yellow, AP to BL, Caco-2 cultured 21 days. The protocol: Drawing of a standard curve for Lucifer yellow: 0.005 μg/mL, 0.01 μg/mL, 0.025 μg/mL, 0.05 μg/mL, 0.1 μg/mL, and 0.25 μg/mL of standard solutions for Lucifer yellow were prepared, the fluorescence intensities (an excitation wavelength: 427 nm, and an emission wavelength: 536 nm) of the standard solutions for Lucifer yellow were measured with a fluorescence spectrophotometer, and linear regression was performed with the fluorescence intensity as an ordinate and the concentration ([…]) as an abscissa. A standard curve was drawn.
Transport tests for Lucifer yellow: Caco-2 cells grew to 21 days in a Transwell, and then a culture medium was sucked and discarded. A preheated HBSS was added to both an AP side and a BL side for cleaning twice and was sucked and discarded, and then a preheated HBSS was added to perform culture under the conditions of 37° C. and 5% CO2 for 20 min. […] Under the condition of Ex=427 nm and Em=536 nm, the fluorescence intensity was measured according to a standard curve and a transport formula. A concentration and permeability coefficient of a transport solution for the Lucifer yellow CH on the BL side were calculated. […]
A general note: Caco-2 cells form a polarised layer with tight junctions and transporters.

Turning to `OC[C@H]1O[C@@H](Oc2cc3c(O)cc(O)cc3[o+]c2-c2ccc(O)c(O)c2)[C@H](O)[C@@H](O)[C@@H]1O` [C3G, Cyanidin-3-glucoside], the “transport amounts after addition of endocytosis inhibitor compared with blank group” value with Caco-2 cells [1] is “no significant changes”. In addition, the “production of inflammatory factors after pretreatment” value in data set [2] was “reduced in a dose-dependent manner”. Also, the “uptake amounts in Caco-2 cells with increase of temperature” value in the data set with Caco-2 cells [3] is listed as “increased significantly”. Moreover, the “change of cell viability compared with blank group” value in the data set on Caco-2 cells [4] is reported as “did not change significantly”. For the same molecule, the “transport amounts in Caco-2 cells with concentration” value in the data set on Caco-2 cells [5] is on record as “increased with the increase of concentration”. For the same molecule, in the data set on Caco-2 cells [6], the “time of maximum uptake amount in Caco-2 cells” value came to 2 h.

Turning to Lucifer yellow, in the data set on Caco-2 cells [7], the “Papp (apparent permeability coefficient)” value worked out at 0.0303 ×10⁻⁶ cm/s.
